In US12285393B2, “Roles of modulators of intersectin-Cdc42 signaling in Alzheimer's disease” (priority 2017, dated 2025):
Peptide text beside a SMILES is read from it. * marks the point of attachment. Trt = c1ccc(C(c2ccccc2)(c2ccccc2)*)cc1; Cbz = O=C(OCc1ccccc1)*; NHNH2 = NN*

Biological target: Cdc42 (Homo sapiens, UniProt P60953)
Experiment: Cdc42-GEF-assay, additional compound screening
Format: biochemical
Set-up: purchased Cytoskeleton Inc
Settings: for % ZCL278 (with GEF): assay slope relative to ZCL278, normalized to batch; for % ZCL278 (without GEF): baseline slope relative to ZCL278, normalized to batch; for % ZCL367 (inhibitor activity): percentages of ZCL367 normalized to batch, less than 100% = more potent inhibitor; for % ZCL278 (activator activity): percentages of ZCL278 activity normalized to batch, more than 100% = more potent activator, Table 9
Description: Rho-GEF IC50 Assay: Rho-GEF assay (Cytoskeleton Inc., Denver, Colorado, United States of America) was conducted per manufacturer's instructions (λex=360 nm, λem=460 nm). Briefly, a solution (50 μL) of purified Rho GTPase (1 μM) and mant-GTP (1.5 μM) with or without compound (0.001-500 μM) was prepared and the absorbance monitored for 10-30 min to obtain the background/baseline. The addition of purified GEF/DH domain (0.08-0.2 μM) was carried out simultaneously and the absorbance was recorded for 30-45 min. The linear slope following the addition of the GEF was calculated and expressed as percentage of the control and plotted on an IC50 curve.
Cdc42 (1 μM) was incubated with mant-GTP (1.5 μM) and varying concentrations of ZCL278, ZCL279, or ZCL367 (5-500 μM). Fluorescent readings were taken every minute for 10 m to acquire the baseline. The GEF/DH domain (0.08-0.2 μM) was added followed by readings taken every minute for another 30 m. The linear phase was calculated from within the time period of 12-22 m. Cdc42 (1 μM) was incubated with mant-GTP (1.5 μM) and varying concentrations of ZCL278, ZCL279, or ZCL367 (5-500 μM). Fluorescent readings were taken every minute for 30 m to monitor the binding of mant-GTP in the absence of GEF/DH domain.
Cdc42-GEF-assays were conducted on additional screening compounds in batches of 9 compounds per batch as described above in Example 2 using ZCL278 and ZCL367 as standards. Screening compounds were taken from the Specs Chemistry Database of 197,000 compounds for small molecule or the National Cancer Institute Compound Library. […] These compounds promote Cdc42-mantGTP binding without GEF. It is possible that these compounds can inhibit Cdc42-mantGTP binding with GEF. […] These compounds appear to have activity like ZCL279. […] However, upon the addition of GEF, the compounds appear to facilitate the binding of mantGTP to Cdc42 (high assay slope, relative to ZCL278)

Sequence of Cdc42 (P60953 whole entry): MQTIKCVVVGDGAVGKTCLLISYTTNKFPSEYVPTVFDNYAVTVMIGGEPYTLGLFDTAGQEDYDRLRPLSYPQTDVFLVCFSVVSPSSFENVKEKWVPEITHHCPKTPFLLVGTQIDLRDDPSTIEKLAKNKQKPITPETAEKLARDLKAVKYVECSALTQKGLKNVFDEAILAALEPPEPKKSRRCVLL

Structure (SMILES)	% ZCL278 (with GEF) [%]	% ZCL278 (without GEF) [%]	% ZCL367 (inhibitor activity) [%]	other results
NNC(=O)C(Cc1cnc[nH]1)NC(=O)CNC(=O)C(CSC(c1ccccc1)(c1ccccc1)c1ccccc1)NC(=O)OCc1ccccc1 (stereo not drawn) [NSC129911] (Cbz-Cys(Trt)-Gly-His-NHNH2; configuration not given here)	96.611	31.919	–	–
O=C1C2C(C(=O)N1/N=C/c1c(O)ccc3ccccc13)[C@H]1C=CC2C12CC2 (stereo partly shown) [ZCL1107]	–	–	62.37	–
O=C(Nc1ccc(S(=O)(=O)Nc2cccc3ccccc23)cc1)Nc1cccc(Cl)c1 [ZCL1127]	–	–	98.5	–
O=c1[nH]cc(C2OCC(O)C(O)C2O)c(=O)[nH]1 (stereo not shown) [NSC94024]	96.844	34.327	–	–
O=C(CCN1C(=O)C2C(C1=O)[C@H]1C=C[C@@H]2C1)Nc1cccc2ccccc12 (stereo partly shown) [ZCL1119]	103.291	59.173	–	–
O=C(c1ccccc1O)N1CCOc2c(O)cc(-c3nc4ccccc4s3)cc2C1 [ZCL1142]	98.499	69.001	–	–
Cc1cn(C2OC(C(O)C(N)=O)C(O)C2O)c(=O)[nH]c1=O (stereo not shown) [NSC111600]	185.829	9.098	–	–
NC(=O)c1[nH]nc(C2OC(CO)C(O)C2O)c1O (stereo not shown) [NSC143095]	–	–	62.98	–
NC(=O)c1ccsc1NC(=O)c1cc(-c2cccc(Br)c2)nc2ccc(Cl)cc12 [ZCL1125]	–	–	28.67	–
O=C(CCCN1C(=O)/C(=C2\SC(=S)N(CCCC(=O)Nc3ccccc3O)C2=O)SC1=S)Nc1ccccc1O [ZCL1100]	–	–	29.97	–
CC1(C)OC2COC(c3[nH]nc(C(N)=O)c3C(=O)N=[N+]=[N-])C2O1 (stereo not shown) [NSC136024]	82.316	20.812	–	–
c1ccc(-c2nc3c(c(NCc4cn5ccsc5n4)n2)CCNC3)cc1 [ZCL1143]	96.811	45.056	–	–
NC1C=CN(C2OC(CO)C(O)C2O)C(=O)N1O (stereo not shown) [NSC128731]	–	–	–	% ZCL278 (activator activity): 108.28%
C[C@H](Oc1cccc(Cl)c1)C(=O)Nc1ccccc1NC(=O)[C@H](C)Oc1cccc(Cl)c1 [ZCL1120]	–	–	81.19	–
CC1(C)OCC(C2OC(O)C3OC(C)(C)OC32)O1 (stereo not shown) [NSC25268]	–	–	64.92	–
NC(=O)CCN(Cc1ccccc1)C(=O)Nc1cccc(OC2CCCC2)c1 [ZCL1139]	–	–	88.55	% ZCL278 (activator activity): 100.29%
CC(=O)Nc1ccc(Nc2nc(-c3ccc(O)cc3)cs2)cc1 [ZCL1124]	97.542	63.125	–	–
Cc1c2oc3c(C)ccc(C(=O)NC(C(N)=O)C(C)O)c3nc-2c(C(=O)NC(C(N)=O)C(C)O)c(N)c1=O (stereo not shown) [NSC407188]	–	–	70.58	–
OCN1CCC2N(CO)CCC3N(CO)CCC1N23 (stereo not shown) [NSC81461]	92.160	15.832	–	–
O=c1c2ccccc2nc(/C=C/c2c(O)ccc3ccccc23)n1-c1ccc(O)cc1 [ZCL1111]	–	–	109.35	–
O=C(CSCc1ccccc1)Nc1ccc(C(=O)O)cc1NC(=O)CSCc1ccccc1 [ZCL1117]	–	–	74.15	–
c1ccc(-c2nc3c(c(NCc4cn5ccsc5n4)n2)CCNC3)cc1 [ZCL1144]	–	–	–	% ZCL278 (activator activity): 454.3%
O=C1/C(=C/c2ccc(O)c(O)c2)SC(=S)N1Nc1ccccc1 [ZCL1109]	–	–	55.74	–
O=C(C(=O)N1CCC(O)(CO)CC1)c1c(-c2ccccc2)cc2ccccn12 [ZCL1137]	–	–	93.54	–
NC(=O)c1cc([N+](=O)[O-])ccc1NCCN1C(=O)C2C(C1=O)[C@H]1C=C[C@@H]2C1 (stereo partly shown) [ZCL1118]	–	–	46.77	–
O=C(CCCN1C(=O)/C(=C2\SC(=S)N(CCCC(=O)Nc3ccccc3O)C2=O)SC1=S)Nc1ccccc1O [ZCL1110]	–	–	104.15	–
NS(=O)(=O)c1ccc(NC2OCC(O)C(O)C2O)cc1 (stereo not shown) [NSC158437]	127.593	12.229	–	–
OCCNC[C@H](O)Cn1c(-c2ccccc2)c(-c2ccccc2)c2ccc3ccccc3c21 [ZCL1115]	–	–	27.33	–
CCCCCn1c(O)c(C(=O)Nc2ccccc2S(N)(=O)=O)c(=O)c2ccccc21 [ZCL1105]	–	–	3.42	–
